Consider 28 compounds from ChEMBL document CHEMBL1136219, “Synthesis and SAR evaluation of oxadiazolopyrazines as selective Haemophilus influenzae antibacterial agents” (2003).

≈ marks a conversion by molar mass, not a printed value. Bounds are passed on as bounds.

Holding throughout (assay type): functional
For test [1], the system named is Haemophilus influenzae. In words: Minimum inhibitory concentration against Haemophilus influenzae.
Test [2] deals with JIYOYE. Kind of test: Cytotoxicity against human Jijoye B cell.
Test [3] has as its system Staphylococcus aureus. In words: Minimum inhibitory concentration against Staphylococcus aureus.
Test [4] relates to Candida albicans. In words: Minimum inhibitory concentration against Candida albicans.
Test [5] deals with Streptococcus pneumoniae. In words: Minimum inhibitory concentration against Streptococcus pneumoniae.
For test [6], the system named is Escherichia coli. Kind of test: Minimum inhibitory concentration against Escherichia coli.

With `O=[N+]([O-])c1cccc(-c2nc3nonc3nc2O)c1`, the MIC in test [1] was 1 µg/mL (≈ 3.86 µM); in test [3] it was 32 µg/mL (≈ 123 µM); in test [4] it was more than 128 µg/mL; in test [5] it was 64 µg/mL (≈ 247 µM); in test [6] it was more than 128 µg/mL. The compound also gave a Cytotoxicity in test [2] of more than 100 µg/mL.

Consider `Oc1nc2nonc2nc1-c1cccc(Cl)c1`, for which the MIC in test [1] was 1 µg/mL (≈ 4.02 µM); in test [3] it was 128 µg/mL (≈ 515 µM); in test [4], more than 128 µg/mL; in test [5], 64 µg/mL (≈ 257 µM); in test [6], more than 128 µg/mL. This compound also registered a Cytotoxicity in test [2] of more than 100 µg/mL.

On to `COc1cc(-c2nc3nonc3nc2O)cc(OC)c1OC`, for which the MIC is 128 µg/mL (≈ 421 µM) in test [1]; more than 128 µg/mL in test [3]; more than 128 µg/mL in test [4]; 128 µg/mL (≈ 421 µM) in test [5]; more than 128 µg/mL in test [6]. In test [2], the Cytotoxicity is more than 100 µg/mL.

With `Oc1nc2nonc2nc1-c1c[nH]c2ccccc12`, the MIC in test [1] is 8 µg/mL (≈ 31.6 µM); in test [3] it was more than 128 µg/mL; in test [4], more than 128 µg/mL; in test [5], 64 µg/mL (≈ 253 µM); in test [6], more than 128 µg/mL. In addition, the Cytotoxicity in test [2] was more than 100 µg/mL.

Turning to `Oc1nc2nonc2nc1-c1ccc(C2CCCCC2)cc1`, the MIC was 16 µg/mL (≈ 54 µM) in test [1]; 4 µg/mL (≈ 13.5 µM) in test [3]; more than 128 µg/mL in test [4]; 64 µg/mL (≈ 216 µM) in test [5]; more than 128 µg/mL in test [6]. Also, the Cytotoxicity in test [2] worked out at 60 µg/mL.

As for `Oc1nc2nonc2nc1-c1cccc(C(F)(F)F)c1`, the MIC was 2 µg/mL (≈ 7.09 µM) in test [1]; 32 µg/mL (≈ 113 µM) in test [3]; more than 128 µg/mL in test [4]; 128 µg/mL (≈ 454 µM) in test [5]; more than 128 µg/mL in test [6]. Further, the Cytotoxicity in test [2] was more than 100 µg/mL.

Take `CN(C)c1ccc(-c2nc3nonc3nc2O)cc1`: the MIC in test [1] was 4 µg/mL (≈ 15.5 µM); in test [3], more than 128 µg/mL; in test [4], more than 128 µg/mL; in test [5] it was 128 µg/mL (≈ 498 µM); in test [6], more than 128 µg/mL. The compound further came in with a Cytotoxicity in test [2] of more than 100 µg/mL.

Turning to `COc1ccc(-c2nc3nonc3nc2O)cc1`, the MIC in test [1] was 4 µg/mL (≈ 16.4 µM); in test [3] it was 64 µg/mL (≈ 262 µM); in test [4] it was more than 128 µg/mL; in test [5] it was 128 µg/mL (≈ 524 µM); in test [6] it was more than 128 µg/mL. Besides, the Cytotoxicity in test [2] is more than 100 µg/mL.

In the case of `Oc1nc2nonc2nc1-c1ccc(F)cc1`, the MIC was 1 µg/mL (≈ 4.31 µM) in test [1]; 64 µg/mL (≈ 276 µM) in test [3]; more than 128 µg/mL in test [4]; 64 µg/mL (≈ 276 µM) in test [5]; more than 128 µg/mL in test [6]. For the same compound, the Cytotoxicity in test [2] was more than 100 µg/mL.

Consider `Oc1nc2nonc2nc1-c1ccccc1F`, for which the MIC is 8 µg/mL (≈ 34.5 µM) in test [1]; more than 128 µg/mL in test [3]; more than 128 µg/mL in test [4]; 64 µg/mL (≈ 276 µM) in test [5]; more than 128 µg/mL in test [6]. The compound further had a Cytotoxicity in test [2] of more than 100 µg/mL.

As for `Oc1nc2nonc2nc1-c1ccsc1`, the MIC in test [1] was 1 µg/mL (≈ 4.54 µM); in test [3], 64 µg/mL (≈ 291 µM); in test [4], more than 128 µg/mL; in test [5], 128 µg/mL (≈ 581 µM); in test [6] it was 128 µg/mL (≈ 581 µM). In test [2], the Cytotoxicity came out at 100 µg/mL.

For `Oc1nc2nonc2nc1-c1cccs1`, the MIC is 0.5 µg/mL (≈ 2.27 µM) in test [1]; 32 µg/mL (≈ 145 µM) in test [3]; more than 128 µg/mL in test [4]; 64 µg/mL (≈ 291 µM) in test [5]; 128 µg/mL (≈ 581 µM) in test [6]. In test [2], this compound had a Cytotoxicity of more than 100 µg/mL.

Take `Oc1nc2nonc2nc1-c1cccc(Br)c1`: the MIC was 0.5 µg/mL (≈ 1.71 µM) in test [1]; 32 µg/mL (≈ 109 µM) in test [3]; more than 128 µg/mL in test [4]; 64 µg/mL (≈ 218 µM) in test [5]; more than 128 µg/mL in test [6]. In test [2], the Cytotoxicity is more than 100 µg/mL.

Regarding `Oc1nc2nonc2nc1-c1ccc(N2CCOCC2)cc1`, the MIC was 32 µg/mL (≈ 107 µM) in test [1]; more than 128 µg/mL in test [3]; more than 128 µg/mL in test [4]; 64 µg/mL (≈ 214 µM) in test [5]; more than 128 µg/mL in test [6]. The compound also gave a Cytotoxicity in test [2] of more than 100 µg/mL.

On to `Cn1cccc1-c1nc2nonc2nc1O`, for which the MIC in test [1] was 8 µg/mL (≈ 36.8 µM); in test [3] it was more than 128 µg/mL; in test [4] it was more than 128 µg/mL; in test [5], 64 µg/mL (≈ 295 µM); in test [6], more than 128 µg/mL. The same compound had a Cytotoxicity in test [2] of more than 100 µg/mL.

For `Oc1nc2nonc2nc1-c1ccc(N2CCCCC2)cc1`, the MIC in test [1] is 64 µg/mL (≈ 215 µM); in test [3], 64 µg/mL (≈ 215 µM); in test [4] it was more than 128 µg/mL; in test [5], 128 µg/mL (≈ 431 µM); in test [6] it was more than 128 µg/mL. Besides, the Cytotoxicity in test [2] was more than 100 µg/mL.

On to `Oc1nc2nonc2nc1-c1ccc(Br)cc1`, for which the MIC in test [1] is 1 µg/mL (≈ 3.41 µM); in test [3] it was 16 µg/mL (≈ 54.6 µM); in test [4], more than 128 µg/mL; in test [5] it was 64 µg/mL (≈ 218 µM); in test [6], more than 128 µg/mL. Also, in test [2], the Cytotoxicity was more than 100 µg/mL.

Consider `Oc1nc2nonc2nc1-c1ccc(C(F)(F)F)cc1`, for which the MIC was 4 µg/mL (≈ 14.2 µM) in test [1]; 32 µg/mL (≈ 113 µM) in test [3]; more than 128 µg/mL in test [4]; 64 µg/mL (≈ 227 µM) in test [5]; more than 128 µg/mL in test [6]. Besides, the Cytotoxicity in test [2] was more than 100 µg/mL.

Turning to `Oc1nc2nonc2nc1-c1ccccc1Cl`, the MIC in test [1] was 128 µg/mL (≈ 515 µM); in test [3], more than 128 µg/mL; in test [4], more than 128 µg/mL; in test [5], 128 µg/mL (≈ 515 µM); in test [6] it was more than 128 µg/mL. Moreover, the Cytotoxicity in test [2] was more than 100 µg/mL.

Turning to `Oc1nc2nonc2nc1-c1ccc(Oc2ccccc2)cc1`, the MIC was 8 µg/mL (≈ 26.1 µM) in test [1]; 4 µg/mL (≈ 13.1 µM) in test [3]; more than 128 µg/mL in test [4]; 64 µg/mL (≈ 209 µM) in test [5]; more than 128 µg/mL in test [6]. The compound also yielded a Cytotoxicity in test [2] of 60 µg/mL.

Consider `O=[N+]([O-])c1ccc(-c2nc3nonc3nc2O)cc1`, for which the MIC in test [1] was 8 µg/mL (≈ 30.9 µM); in test [3] it was more than 128 µg/mL; in test [4], more than 128 µg/mL; in test [5], 128 µg/mL (≈ 494 µM); in test [6], more than 128 µg/mL. Further, the Cytotoxicity in test [2] is more than 100 µg/mL.

For `Oc1nc2nonc2nc1-c1ccccc1Br`, the MIC was 128 µg/mL (≈ 437 µM) in test [1]; more than 128 µg/mL in test [3]; more than 128 µg/mL in test [4]; 128 µg/mL (≈ 437 µM) in test [5]; more than 128 µg/mL in test [6]. In test [2], this compound yielded a Cytotoxicity of more than 100 µg/mL.

For the compound `Oc1nc2nonc2nc1-c1ccc(Cl)cc1`, the MIC in test [1] was 1 µg/mL (≈ 4.02 µM); in test [3], 16 µg/mL (≈ 64.4 µM); in test [4] it was more than 128 µg/mL; in test [5], 128 µg/mL (≈ 515 µM); in test [6], more than 128 µg/mL. For the same compound, the Cytotoxicity in test [2] is more than 100 µg/mL.

Regarding `Oc1nc2nonc2nc1-c1ccc2c(c1)OCO2`, the MIC is 2 µg/mL (≈ 7.75 µM) in test [1]; 64 µg/mL (≈ 248 µM) in test [3]; more than 128 µg/mL in test [4]; 128 µg/mL (≈ 496 µM) in test [5]; more than 128 µg/mL in test [6]. Also, the Cytotoxicity in test [2] is more than 100 µg/mL.

For `Oc1nc2nonc2nc1-c1cccc(F)c1`, the MIC in test [1] was 1 µg/mL (≈ 4.31 µM); in test [3], 64 µg/mL (≈ 276 µM); in test [4] it was more than 128 µg/mL; in test [5], 64 µg/mL (≈ 276 µM); in test [6] it was 128 µg/mL (≈ 551 µM). Moreover, the Cytotoxicity in test [2] was more than 100 µg/mL.

With `COc1cccc(-c2nc3nonc3nc2O)c1`, the MIC in test [1] was 8 µg/mL (≈ 32.8 µM); in test [3], 128 µg/mL (≈ 524 µM); in test [4], more than 128 µg/mL; in test [5] it was 64 µg/mL (≈ 262 µM); in test [6], more than 128 µg/mL. In test [2], this compound came in with a Cytotoxicity of more than 100 µg/mL.

Turning to `Oc1nc2nonc2nc1-c1ccccc1`, the MIC was 1 µg/mL (≈ 4.67 µM) in test [1]; 128 µg/mL (≈ 598 µM) in test [3]; more than 128 µg/mL in test [4]; 128 µg/mL (≈ 598 µM) in test [5]; 128 µg/mL (≈ 598 µM) in test [6]. In test [2], this compound yielded a Cytotoxicity of more than 100 µg/mL.

As for `Oc1nc2nonc2nc1-c1ccc[nH]1`, the MIC was 4 µg/mL (≈ 19.7 µM) in test [1]; 128 µg/mL (≈ 630 µM) in test [3]; 128 µg/mL (≈ 630 µM) in test [4]; 128 µg/mL (≈ 630 µM) in test [5]; more than 128 µg/mL in test [6]. Further, the Cytotoxicity in test [2] is more than 100 µg/mL.
